Measurements reported in patent US20060276393A1, “Novel compositions for preventing and treating neurodegenerative and blood coagulation disorders” (Sirtris Pharmaceuticals, Inc., priority 2005, published 2006).
“And” between values parts separate entries of the source, which are not always exact repeats. Equal entries are not always repeated. “Also recorded” adds a separate entry of the source.

How the values were obtained:
recombinant human SIRT1 = target: T1, recombinant human SIRT1 (Homo sapiens, UniProt Q96EB6); assay: SIRT1 fluorescent deacetylation assay (p53-382 acetylated peptide); assay type: biochemical; conditions: for SIRT1 stimulating activity (in words): 25 μM NAD+, 25 μM p53-382 acetylated peptide, compounds at 100 μM
T1 sequence (Q96EB6 1-747): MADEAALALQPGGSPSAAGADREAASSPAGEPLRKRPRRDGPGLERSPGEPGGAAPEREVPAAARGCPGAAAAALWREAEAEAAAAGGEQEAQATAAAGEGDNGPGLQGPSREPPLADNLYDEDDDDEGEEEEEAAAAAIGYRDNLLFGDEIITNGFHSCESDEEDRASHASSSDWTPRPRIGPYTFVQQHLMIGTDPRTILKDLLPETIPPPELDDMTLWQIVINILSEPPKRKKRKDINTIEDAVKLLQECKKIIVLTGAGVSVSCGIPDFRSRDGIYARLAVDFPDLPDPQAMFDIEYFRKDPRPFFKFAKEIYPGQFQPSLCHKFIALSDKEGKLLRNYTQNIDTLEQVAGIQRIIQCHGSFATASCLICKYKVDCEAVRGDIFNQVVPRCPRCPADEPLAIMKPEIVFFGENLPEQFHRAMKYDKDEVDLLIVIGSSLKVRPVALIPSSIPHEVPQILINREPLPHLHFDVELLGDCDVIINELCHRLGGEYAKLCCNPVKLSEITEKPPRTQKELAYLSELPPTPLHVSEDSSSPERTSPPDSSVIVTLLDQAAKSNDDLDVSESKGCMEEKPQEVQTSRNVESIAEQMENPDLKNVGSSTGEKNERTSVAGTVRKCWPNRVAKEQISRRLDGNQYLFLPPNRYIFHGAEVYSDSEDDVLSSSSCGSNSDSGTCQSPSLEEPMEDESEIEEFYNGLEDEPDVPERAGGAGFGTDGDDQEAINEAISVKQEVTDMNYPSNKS
From the text: Lines represent non-linear least-squares fits to the Michaelis-Menten equation. […] Lines represent non-linear least-squares fits to the Michaelis-Menten equation. […] Error bars are standard errors of the mean.
To identify compounds that modulate SIRT1 activity, a number of small molecule libraries were screened using a fluorescent deacetylation assay in 96-well plates^26. The substrate used in the assay was a fluorogenic peptide based on the sequence encompassing the p53-K382 acetylation site, a known target of SIRT1 in vivo^20,21,27. […] The small molecule libraries included analogues of nicotinamide, ε-acetyl lysine, NAD^+, nucleotides, nucleotide analogues and purinergic ligands.
His6-tagged recombinant SIRT1 and GST-tagged recombinant Sir2 were prepared as previously described^26. From 0.1 to 1 μg of SIRT1 and 1.5 μg of Sir2 were used per deacetylation assay (in 50 μl total reaction) as previously described^26.
Themed compound libraries (BIOMOL) were used for primary and secondary screening. Most polyphenol compounds were dissolved at 10 mM in dimethylsulfoxide (DMSO) on the day of the assay. For water soluble compounds and negative controls, 1% v/v DMSO was added to the assay. […] Unless otherwise indicated all initial rate measurements were means of three or more replicates, obtained with single incubation times, at which point 5% or less of the substrate initially present had been deacetylated. Calculation of net fluorescence increases included subtraction of a blank value, which in the case of Sir2 was obtained by omitting the enzyme from the reaction and in the case of SIRT1 by adding an inhibitor (200 μM suramin or 1 mM nicotinamide) to the reaction prior to the acetylated substrate. […] All error bars represent the standard error of the mean.

S. cerevisiae = assay: Yeast replicative lifespan; assay type: cell-based; conditions: for Average lifespan: 10 μM compound, 2% glucose medium, wild type untreated 22.9; for % change in yeast replicative lifespan relative to untreated organisms (10 μM): 2% (w/v) glucose YPD, untreated 100%
Method: Average lifespan for wild type, 22.9 generations, quercetin, 23.4; piceatannol. […]
All yeast strains were grown at 30° C. in complete yeast extract/bactopeptone, 2.0% (w/v) glucose (YPD) medium except where stated otherwise. Calorie restriction was induced in 0.5% glucose. Synthetic complete (SC) medium consisted of 1.67% yeast nitrogen base, 2% glucose, 40 mg/litre each of auxotrophic markers. SIR2 was integrated in extra copy and disrupted as described^5. Other strains are described elsewhere^26. For cellular deacetylation assays, HeLa S3 cells were used. U20S osteosarcoma and human embryonic kidney (HEK 293) cells were cultured adherently in Dulbecco's Modified Eagle's Medium (DMEM) containing 10% fetal calf serum (FCS) with 1.0% glutamine and 1.0% penecillin/streptomycin. HEK 293 overexpressing dominant negative SIRT1 H363Y was a gift of R. Frye (U. Pittsburgh).
Lifespan measurements were performed using PSY316AT MATα as previously described^35. All compounds for lifespan analyses were dissolved in 95% ethanol and plates were dried and used within 24 hours. Prior to lifespan analysis, cells were pre-incubated on their respective media for at least 15 hours. Following transfer to a new plate, cells were equilibrated on the medium for a minimum of 4 hours prior to micro-manipulating them. At least 30 cells were examined per experiment and each experiment was performed at least twice. Statistical significance of lifespan differences was determined using the Wilcoxon rank sum test. Differences are stated to be significant when the confidence is higher than 95%.

HDAC = conditions: in vitro or in vivo, literature; cited from earlier work
D. melanogaster = D. melanogaster lifespan; assay type: in vivo
Method: Females (a) and males (b) with loss-of-function genotype dSir2^4.5/dSir2^5.26. Females (c) and males (d) with strong hypomorphic genotype dSir2^17/dSir2^KG00871.
Survival assays were conducted independently with adult D. melanogaster in two laboratories. In the first laboratory, all trials used an yw marked wild-type strain. Larvae were reared on standard cornmeal-sugar-yeast (CSY) agar diet (cornmeal 5%, sucrose 10.5%, SAF yeast 2%, and agar 0.7%). Newly eclosed adults were placed in 1 L demography cages with approximately 75 males and 75 females. Three to four replicate 1 L demography cages were used for each treatment group in each trial. Every two days, dead flies were removed and scored, and food vials were replenished. Food vials contained cornmeal-sugar-yeast diet with SAF yeast as either 2% or 3% by weight. Test compounds in 100 μl of EtOH (or blank EtOH in controls) were mixed into melted aliquots of the adult food media to make a final concentration of 0, 10 or 100 μM. Fresh stock solutions and adult media were prepared weekly. In the second laboratory, lifespan trials were conducted with the wild type strain Canton-S, dSir2^4.5 and dSir2^5.26 (S. Smolik, University of Oregon), dSir2^17 (S. Astrom, Stockholm University, Sweden), and dSir2^KG00871 (Drosophila Stock Center, Bloomington, Ind.). Larvae for all tests were reared on standard cornmeal-sugar-yeast diet. Newly eclosed adults were incubated in plastic shell vials containing 5 ml of 15% sugar-yeast diet (15% SY) or 5% sugar-yeast (5% SY) diet (15% SY: 15% yeast, 15% sucrose, 2% agar; 5% SY: 5% yeast, 5% sucrose, 2% agar as per Ref. ^20). In all trials, ˜20 males with ˜20 females were placed into each of 10 vials/treatment group. Every two days, flies were passed into new vials and dead flies were counted. […] Final compound concentrations were 0, 10, 100 or 200 μM. Fresh stock solution and adult media was prepared weekly.

Human 293 = assay: Survival of 293 cells; conditions: 50 micromolar
From the text: The number of live cells each time point was counted using a Coulter counter.

With `O=C(Nc1cc(O)cc(O)c1)c1ccccc1` [BML-219, N-(3,5-Dihydroxyphenyl)benzamide] the “SIRT1 stimulating activity (in words)” value (recombinant human SIRT1) was “abolished activity”.
For `Oc1cc(O)cc(/C=C/c2ccc(O)c(O)c2)c1` [piceatannol, 3,5,3′,4′-Tetrahydroxy-trans-stilbene], the “stimulated SIRT1 activity” value (recombinant human SIRT1; initial library screen, fluorogenic p53-K382 peptide (Table 1)) was “eight”, the “effect on lifespan (in words)” value (S. cerevisiae; 10 μM) was “no significant effect on lifespan” and the Average lifespan (S. cerevisiae) was 24.0 generations.
With `NC(=O)c1cccnc1` [Nicotinamide, nicotinamide] the “SIRT1 Vmax decrease” value (recombinant human SIRT1; 50 μM nicotinamide, absence of resveratrol, NAD+ or acetylated peptide varied) was 30% and 36%.
With `O=c1c(O)c(-c2ccc(O)c(O)c2)oc2cc(O)cc(O)c12` [quercetin, 3,5,7,3′,4′-Pentahydroxyflavone] the “effect on lifespan (in words)” value (S. cerevisiae; 10 μM) was “no significant effect on lifespan” and the Average lifespan (S. cerevisiae) was 23.4 generations.
For `O=C(/C=C/c1cccc(C(=O)NO)c1)NO` [CBHA, m-carboxy-cinnamic acid bishydroxamic acid], the “HDAC inhibition (in words)” value (HDAC) is listed as “micromolar concentration or lower”.
For trichostatin A [TSA], the “HDAC inhibition (in words)” value (HDAC) is given as “potent inhibitor of mammalian HDAC”.
With `O=c1c(O)c(-c2ccc(O)c(O)c2)oc2cc(O)ccc12` [fisetin, 3,7,3′,4′-Tetrahyddroxyflavone] the “increase of average lifespan” value (S. cerevisiae; 10 μM) was 55%, the “maximum lifespan (in words)” value (S. cerevisiae; 10 μM) was “significantly increased maximum lifespan” and the Average lifespan (S. cerevisiae) was 30.0 generations. For the same molecule, the “longevity on restricted diet” value (D. melanogaster; restricted diet) was “neither resveratrol nor fisetin further increased longevity” and the “lifespan extended (maximum)” value (D. melanogaster; wild type Canton-S and yw, males and females, normal diet) was “up to 23%”.
For `Oc1cc(O)cc(/C=C/c2ccc(F)cc2)c1` [BML-212, 3,5-Dihydroxy-4′-fluoro-trans-stilbene], the “% change in yeast replicative lifespan relative to untreated organisms (10 μM)” value (S. cerevisiae; 10 μM) was 98%.
In the case of depudecin, the “HDAC inhibition (in words)” value (HDAC) is given as “micromolar concentrations”.
With `Oc1cc(O)cc(/C=C/C2CCCCC2)c1` [BML-224] the “SIRT1 stimulating activity (in words)” value (recombinant human SIRT1) was “nearly as detrimental to SIRT1 stimulating activity”.
With `CCc1ccc(/C=C/c2cc(O)cc(O)c2)cc1` [BML-225] the “Survival of 293 cells” value (Human 293; 0 h) was 100%, the “Survival of 293 cells” value (Human 293; 48 h) was 5% and the “Survival of 293 cells” value (Human 293; 96 h) was 8%.
In the case of `C/C=C1\NC(=O)[C@H]2CSSCC/C=C/[C@H](CC(=O)N[C@H](C(C)C)C(=O)N2)OC(=O)[C@H](C(C)C)NC1=O` [Depsipeptide], the “HDAC inhibition (in words)” value (HDAC) is given as “micromolar concentrations”.
In the case of 5,7,4′-Trihydroxyflavanone [genistein], the “SIRT1 stimulating activity (in words)” value (recombinant human SIRT1) is reported as “absence of activity”.
For `Oc1cc(O)cc(/C=C/c2ccc(Cl)cc2)c1` [BML-217, 3,5-Dihydroxy-4′-chloro-trans-stilbene], the “SIRT1 stimulating activity (in words)” value (recombinant human SIRT1) was “did the least to decrease activity; also recorded: did not significantly diminish the SIRT1 activating effect” and the “% change in yeast replicative lifespan relative to untreated organisms (10 μM)” value (S. cerevisiae; 10 μM) was 90%.
For `Cc1ccc(/C=C/c2cc(O)cc(O)c2)cc1` [BML-228], the “SIRT1 stimulating activity (in words)” value (recombinant human SIRT1) was “did the least to decrease activity”, the “Survival of 293 cells” value (Human 293; 0 h) was 100% and the “Survival of 293 cells” value (Human 293; 48 h) was 46%. The “Survival of 293 cells” value (Human 293; 96 h) was 32%.
For `CSc1ccc(/C=C/c2cc(O)cc(O)c2)cc1` [BML-230], the “v1/v2, ratio of BML-230-stimulated to resveratrol-stimulated SIRT1 rate” value (recombinant human SIRT1; R at 500 μM) was ≤ 1.4, the “BML-230-stimulated SIRT1 activity compared with resveratrol” value (recombinant human SIRT1; dose response, 25 μM each NAD+ and p53-382 peptide, 20 min) was “exceeds that stimulated by resveratrol at all concentrations tested” and the “dissociation constant of SIRT1/activator complex (comparison)” value (recombinant human SIRT1; inferred from two state model, FIG. 9b) was “lower dissociation constant than SIRT1/resveratrol”. For the same molecule, the “Survival of 293 cells” value (Human 293; 0 h) was 100%, the “Survival of 293 cells” value (Human 293; 48 h) was 55% and the “Survival of 293 cells” value (Human 293; 96 h) was 57%. For the same molecule, the “toxicity on 293 cells (in words)” value (Human 293; 96 hours) was “least toxic on 293 cells”.
